Experiments:
[1] = system: MiaPaCa-2 pancreatic cancer cell line; assay: [3H]-thymidine incorporation (DNA synthesis), MiaPaCa-2; format: cell-based
Experimental: (§1) Cell culture. The following pancreatic cancer cell lines were used: MiaPaCa-2 and PANC-1 (poorly-differentiated); Capan-1 and Capan-2 (well-differentiated); and HPAF and AsPC-1 (pleomorphic). These were purchased from American Type Culture Collection (Rockville, Md.). PANC-1 and MiaPaCa-2 were grown in DMEM media; HPAF and AsPC-1 were grown in MEM media; and Capan-1 and Capan-2 were grown in-McCoy's media. Media were supplemented with 10% FBS, and the cells were grown as monolayers in a humidified atmosphere of […] and 5% CO2 at 37° C. The cells were regularly seeded into 75 cm^2 flask with media changed every other day. For experiments, cells were grown to 80% confluence, digested with trypsin-EDTA, and plated either in 12 or 24-well plates at a concentration of 50,000/ml, as appropriate.
(§2) DNA synthesis by [^3H]-Thymidine incorporation. Cells were plated in 12 or 24-well plates. After reaching 70% confluence, they were incubated in serum-free media for 24 hours, which was then replaced with fresh serum-free media with or without the appropriate concentration of leukotriene B4 receptor antagonist LY293111 (62.5-1000 nM), LTB4 (100-400 nM), or both. After the appropriate period of culture, cellular DNA synthesis was assayed by adding 0.5 μCi/well of [^3H]-methyl-thymidine and incubating for another 2 hours. Then, the cells were washed twice with PBS, fixed with 10% trichloroacetic acid (“TCA”) for 30 minutes, and solubilized by adding 0.4 M NaOH to each well. Radioactivity, indicating incorporation of ^3H-thymidine into DNA, was measured by adding a scintillation cocktail and counting on a scintillation counter (LKB RackBeta, Wallac, Turku, Finland)

[2] = system: Capan-2 pancreatic cancer cell line; assay: [3H]-thymidine incorporation (DNA synthesis), Capan-2; format: cell-based; conditions: mean±SEM; for proliferation (thymidine incorporation), % control: 24 hours
Experimental: as §1, §2

[3] = system: AsPC-1 pancreatic cancer cell line; assay: [3H]-thymidine incorporation (DNA synthesis), AsPC-1; format: cell-based, human; conditions: mean±SEM; for proliferation (thymidine incorporation), % control: 24 hours
Experimental: as §1, §2

[4] = system: MiaPaCa-2 pancreatic cancer cells; assay: Morphological changes by phase-contrast microscopy, MiaPaCa-2; format: cell-based; conditions: MiaPaCa-2, 250 nM, as early as 4 hours after treatment; interpreted as reflecting apoptosis
Experimental: Morphological changes using light microscope. Pancreatic cancer cells grown in 75 cm^2 flasks were treated with different concentrations of LY293111 for different periods of time. They were then viewed by phase-contrast microscopy, and photographs were taken.

MiaPaCa-2 cells = assay: DNA fragmentation assay (agarose gel), MiaPaCa-2; format: cell-based; conditions: MiaPaCa-2, 250, 500 and 1000 nM for 48 hours; no ladder in control cells
Experimental: DNA fragmentation assay. For analysis of DNA fragmentation by agarose gel electrophoresis, treated pancreatic cancer cells were detached from 75 cm^2 flask with trypsin-EDTA, washed twice with PBS, resuspended in 1 ml lysis buffer (25 mM EDTA, 10 mM Tris, 0.5% Triton X-100, and 1% SDS), and freeze-thawed at −80° C. overnight. Then, an equal volume of PEG/NaCl stock solution was added to the lysates to give a final concentration of 0.25% PEG and 1 M NaCl, and the tubes were centrifuged at 13,200 g at 4° C. for 30 minutes. The supernatants containing fragmented small molecular weight DNA were then incubated with RNAse A (0.3 mg/ml) at 37° C. for one hour and then with […] proteinase K (10 mg/ml) for three hours. Samples were then extracted with phenol-chloroform and precipitated with 70% ethanol overnight. The pellets containing DNA were then resuspended in […] of TE buffer, subjected to electrophoresis on a 1.8% agarose gel containing ethidium bromide ([…]), visualized by UV illumination, and analyzed using a Molecular Analyst Gel Documentation system (Bio-rad Laboratories, Hercules, Calif.).

[5] = system: Bcl-2 in MCF-7 breast cancer cells; assay: Bcl-2 expression by western blotting; format: cell-based; conditions: MCF-7, LY293111 500 nM
[6] = system: AsPc-1 human pancreatic tumor cell line xenograft; assay: AsPc-1 xenograft tumor growth in athymic mice; format: in vivo; conditions: 0.01% LY293111 in the drinking water, started four days after s.c. injection of 3 million AsPc-1 cells
Experimental: Athymic mice received a subcutaneous injection of 3 million cancer cells in 50 μl of serum-free media. The highly malignant and aggressive pancreatic tumor cell line, AsPc-1, was used in this experiment. The tumors were allowed to establish and grow for four days prior to treatment with 0.01% LY293111 in the drinking water.

[7] = system: pancreatic cancer cell lines; assay: Proliferation of pancreatic cancer cell lines (summary statement); format: cell-based
Experimental: as §1
DNA synthesis by [^3H]-Thymidine incorporation. Cells were plated in 12 or 24-well plates. After reaching 70% confluence, they were incubated in serum-free media for 24 hours, which was then replaced with fresh serum-free media with or without the appropriate concentration of leukotriene B4 receptor antagonist LY293111 (62.5-1000 nM), LTB4 (100-400 nM), or both. […] Radioactivity, indicating incorporation of ^3H-thymidine into DNA, was measured by adding a scintillation cocktail and counting on a scintillation counter (LKB RackBeta, Wallac, Turku, Finland)

[8] = system: pancreatic, colonic, and breast cancer cell lines; assay: Proliferation by thymidine incorporation and cell number, all lines studied; format: cell-based
Experimental: as §2
Cell proliferation assay. Pancreatic cancer cells were seeded into 24-well microplates and incubated at 37° C. After 24 hours, cells were cultured in serum-free media with or without 250 nM LY293111 for 24, 48, and 72 hours. At the end of each time period, the cells were trypsinized to produce a single cell suspension, and the cell number in each well was determined using a Zi-Coulter Counter (Luton, Bedfordsire, United Kingdom). […]

## CCCc1c(OCCCOc2cc(O)c(-c3ccc(F)cc3)cc2CC)cccc1Oc1ccccc1C(=O)O [LY293111, 2-(2-propyl-3-(3-(2-ethyl-4-(4-fluorophenyl)-5-hydroxyphenoxy)propoxy)-phenoxy)benzoic acid]
[1]; MiaPaCa-2 (FIG. 6A), LY293111 250 nM, 24 hours
  decrease of proliferation: 50%
[1]; MiaPaCa-2, 250 nM LY293111 + 100 nM LTB4, 24 hours
  proliferation with combination of LTB4 and LY293111: restored to almost the control level
[1]; MiaPaCa-2, concentration-dependent (FIG. 1A, P<0.0001) and time-dependent (FIG. 1B, P<0.0001)
  effect on thymidine incorporation: inhibition of thymidine incorporation
[2]; Capan-2, LY293111 62.5 nM
  proliferation (thymidine incorporation), % control: 95.4 ± 8.7 % control
[2]; Capan-2, LY293111 125 nM
  proliferation (thymidine incorporation), % control: 67.3 ± 6.8 % control
[2]; Capan-2, LY293111 250 nM
  proliferation (thymidine incorporation), % control: 51.2 ± 5.8 % control
[2]; Capan-2, LY293111 500 nM, 6 h
  proliferation, % control (time course): 57.8 ± 4.3 % control
[2]; Capan-2, LY293111 500 nM, 12 h
  proliferation, % control (time course): 32.1 ± 5.6 % control
[2]; Capan-2, LY293111 500 nM, 24 h
  proliferation, % control (time course): 10.9 ± 6.0 % control
[2]; Capan-2, LY293111 500 nM
  proliferation (thymidine incorporation), % control: 15.8 ± 9.6 % control
[2]; Capan-2, LY293111 1000 nM
  proliferation (thymidine incorporation), % control: 8.9 ± 2.1 % control
[3]; AsPC-1, LY293111 62.5 nM
  proliferation (thymidine incorporation), % control: 90.6 ± 4.6 % control
[3]; AsPC-1, LY293111 125 nM
  proliferation (thymidine incorporation), % control: 72.8 ± 5.4 % control
[3]; AsPC-1, LY293111 250 nM
  proliferation (thymidine incorporation), % control: 44.5 ± 7.7 % control
[3]; AsPC-1, LY293111 500 nM, 6 h
  proliferation, % control (time course): 65.8 ± 7.7 % control
[3]; AsPC-1, LY293111 500 nM, 12 h
  proliferation, % control (time course): 44.7 ± 4.1 % control
[3]; AsPC-1, LY293111 500 nM, 24 h
  proliferation, % control (time course): 16.7 ± 2.1 % control
[3]; AsPC-1, LY293111 500 nM
  proliferation (thymidine incorporation), % control: 18.4 ± 6.9 % control
[3]; AsPC-1, LY293111 1000 nM
  proliferation (thymidine incorporation), % control: 7.3 ± 1.2 % control
[4]
  morphological changes (phase-contrast microscopy): marked morphological changes
MiaPaCa-2 cells
  DNA fragmentation (apoptosis): distinctive DNA ladder
[5]
  Bcl-2 expression (western blot): inhibited expression
[6]
  tumor size vs control group: smaller tumors
[7]; LY293111 250 nM
  inhibition at 0.25 µM: ≥ 50%
[7]; LY293111 1000 nM
  inhibition at 1 µM: > 95%
[8]
  effect on proliferation (thymidine incorporation and cell number): profound concentration-dependent and time-dependent inhibition of proliferation
